The test system of this test is BDF1 mice, P388 leukemia ip, median survival T/C. Nature of the test: NCI In Vivo Anticancer Drug Screen. Data for tumor model P388 Leukemia (intraperitoneal) in B6D2F1 (BDF1) mice. Conditions: endpoint: median survival time, higher = longer survival. The gist of the method: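 In tumour-bearing mice, survival after compound treatment is set against the vehicle group and given as a quotient.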

[1] abbreviates: dose: 100.0 mg/kg/injection, schedule: Q04DX003 (ip), vehicle: water.
Where [2] appears, read: dose: 200.0 mg/kg/injection, schedule: Q04DX003 (ip), vehicle: water.
[3] abbreviates: dose: 100.0 mg/kg/injection, schedule: Q04DX003 (ip), vehicle: saline with Tween-80.
Setting [4] is: dose: 200.0 mg/kg/injection, schedule: Q04DX003 (ip), vehicle: saline with Tween-80.
[5] abbreviates: dose: 400.0 mg/kg/injection, schedule: Q04DX003 (ip), vehicle: saline with Tween-80.
Where [6] appears, read: dose: 12.5 mg/kg/injection, schedule: Q01DX009 (ip), vehicle: Klucel (hydroxypropylcellulose) (HPC).
The mark [7] stands for this setting: dose: 25.0 mg/kg/injection, schedule: Q01DX009 (ip), vehicle: Klucel (hydroxypropylcellulose) (HPC).
Where [8] appears, read: dose: 50.0 mg/kg/injection, schedule: Q01DX009 (ip), vehicle: saline with Tween-80.
Setting [9] is: dose: 25.0 mg/kg/injection, schedule: Q01DX009 (ip), vehicle: saline with Tween-80.
Where [10] appears, read: dose: 6.25 mg/kg/injection, schedule: Q01DX009 (ip), vehicle: saline with Tween-80.
The mark [11] stands for this setting: dose: 12.5 mg/kg/injection, schedule: Q01DX009 (ip), vehicle: saline with Tween-80.
The mark [12] stands for this setting: dose: 100.0 mg/kg/injection, schedule: Q01DX009 (ip), vehicle: Klucel (hydroxypropylcellulose) (HPC).

Several values for one entry are separate records, joined by “and”; a condition that tells them apart may be missing. Identical values can stand only once. Toxic doses and inconclusive results are not listed.

Regarding `CCNC(C)(C)C(SS(=O)(=O)O)c1cccs1` (stereo not given), the T/C (dose: 100.0 mg/kg/injection, schedule: Q01DX009 (ip), vehicle: water) was 121 % of control; the T/C under setting [1] is 102 % of control; the T/C (dose: 200.0 mg/kg/injection, schedule: Q01DX009 (ip), vehicle: water) is 121 % of control; the T/C under setting [2] is 111 % of control; the T/C (dose: 400.0 mg/kg/injection, schedule: Q04DX003 (ip), vehicle: water) is 93 % of control.
Consider `COc1cc2c(cc1OC(C)=O)C(=O)CCCC2`, for which the T/C under setting [3] is 89 % of control, the T/C under setting [4] was 103 % of control and the T/C under setting [5] is 99 % of control.
Turning to `C=C=[CH][Sn]([c]1ccccc1)([c]1ccccc1)[c]1ccccc1`, the T/C is 92 % of control and 108 % of control (dose: 6.25 mg/kg/injection, schedule: Q01DX009 (ip), vehicle: Klucel (hydroxypropylcellulose) (HPC)); 96 % of control and 104 % of control under setting [6]; 107 % of control and 112 % of control and 115 % of control under setting [7].
With `COC(=O)c1oc(C(=O)OC)c(OCc2ccccc2)c1OCc1ccccc1`, the T/C is, setting by setting: (dose: 50.0 mg/kg/injection, schedule: Q01DX001 (ip), vehicle: saline sonified) 100 % of control; (dose: 100.0 mg/kg/injection, schedule: Q01DX001 (ip), vehicle: saline sonified) 109 % of control; (dose: 200.0 mg/kg/injection, schedule: Q01DX001 (ip), vehicle: saline sonified) 90 % of control.
Consider `O=C(c1ccccc1)C1C(c2ccccc2)N1CCl` (stereo not given), for which the T/C by setting is: (dose: 100.0 mg/kg/injection, schedule: Q04DX003 (ip), vehicle: Klucel (hydroxypropylcellulose) (HPC)) 113 % of control; (dose: 200.0 mg/kg/injection, schedule: Q04DX003 (ip), vehicle: Klucel (hydroxypropylcellulose) (HPC)) 100 % of control; (dose: 400.0 mg/kg/injection, schedule: Q04DX003 (ip), vehicle: Klucel (hydroxypropylcellulose) (HPC)) 100 % of control.
Turning to `CC(=O)c1ccc(C(=O)CC(O)(C(F)(F)F)C(F)(F)F)cc1`, the T/C is, setting by setting: (dose: 50.0 mg/kg/injection, schedule: Q01DX009 (ip), vehicle: other) 104 % of control; (dose: 50.0 mg/kg/injection, schedule: Q04DX003 (ip), vehicle: other) 90 % of control; (dose: 100.0 mg/kg/injection, schedule: Q01DX009 (ip), vehicle: other) 104 % of control; (dose: 100.0 mg/kg/injection, schedule: Q04DX003 (ip), vehicle: other) 95 % of control.
On to `CN(C)c1ccc(-c2c3ccccc3nc3ccccc23)cc1`, for which the T/C is, setting by setting: under setting [8], 107 % of control; (dose: 100.0 mg/kg/injection, schedule: Q01DX009 (ip), vehicle: saline with Tween-80) 115 % of control; (dose: 200.0 mg/kg/injection, schedule: Q01DX009 (ip), vehicle: saline with Tween-80) 106 % of control.
Regarding `COC1(c2ccco2)OC1(C)C` (stereo not given), the T/C is 86 % of control (dose: 5.0 mg/kg/injection, schedule: Q01DX009 (ip), vehicle: Klucel (hydroxypropylcellulose) (HPC)); 109 % of control (dose: 5.0 mg/kg/injection, schedule: Q04DX003 (ip), vehicle: saline); 86 % of control (dose: 10.0 mg/kg/injection, schedule: Q01DX009 (ip), vehicle: Klucel (hydroxypropylcellulose) (HPC)); 109 % of control (dose: 10.0 mg/kg/injection, schedule: Q04DX003 (ip), vehicle: saline); 90 % of control (dose: 20.0 mg/kg/injection, schedule: Q01DX009 (ip), vehicle: Klucel (hydroxypropylcellulose) (HPC)); 104 % of control (dose: 20.0 mg/kg/injection, schedule: Q04DX003 (ip), vehicle: saline).
As for `CCC(C)(OC(C)=O)C(=O)OC1C(=O)OC2CC3C(C)=CC(=O)C(O)C3(C)C3C(O)C(O)C4(C)OCC23C14` (stereo not given), the T/C was 104 % of control (dose: 0.01 mg/kg/injection, schedule: Q01DX009 (ip), vehicle: saline + alcohol); 180 % of control (dose: 0.06 mg/kg/injection, schedule: Q01DX009 (ip), vehicle: saline + alcohol); 161 % of control (dose: 0.1 mg/kg/injection, schedule: Q01DX009 (ip), vehicle: saline + alcohol); 109 % of control (dose: 0.12 mg/kg/injection, schedule: Q01DX009 (ip), vehicle: saline + alcohol); 168 % of control (dose: 0.38 mg/kg/injection, schedule: Q01DX009 (ip), vehicle: saline + alcohol); 161 % of control (dose: 0.75 mg/kg/injection, schedule: Q01DX009 (ip), vehicle: saline + alcohol). In addition, the T/C is 173 % of control (dose: 2.0 mg/kg/injection, schedule: Q01DX009 (ip), vehicle: saline + alcohol) and 171 % of control (dose: 3.0 mg/kg/injection, schedule: Q01DX009 (ip), vehicle: saline + alcohol).
Take `NC(=O)N/N=C/c1cccs1`: the T/C under setting [9] is 97 % of control and the T/C under setting [8] was 104 % of control.
As to `CCOC(=O)C(Br)c1cccc(OC)c1` (stereo not given), the T/C is, setting by setting: under setting [3], 100 % of control; under setting [4], 100 % of control; under setting [5], 110 % of control.
For the molecule `CCOC(=O)c1cc2c(nn3c(C)cccc23)n(CC)c1=N`, the T/C (dose: 6.25 mg/kg/injection, schedule: Q01DX001 (ip), vehicle: saline) was 105 % of control; the T/C (dose: 12.5 mg/kg/injection, schedule: Q01DX001 (ip), vehicle: saline) is 122 % of control; the T/C (dose: 25.0 mg/kg/injection, schedule: Q01DX001 (ip), vehicle: saline) was 100 % of control.
With `COc1ccc(C2=CC(=O)C(c3ccc(OC)cc3)=CC2=O)cc1`, the T/C is, setting by setting: (dose: 5.0 mg/kg/injection, schedule: Q01DX009 (ip), vehicle: gum acacia) 87 % of control; (dose: 20.0 mg/kg/injection, schedule: Q01DX009 (ip), vehicle: gum acacia) 91 % of control; (dose: 20.0 mg/kg/injection, schedule: Q04DX003 (ip), vehicle: gum acacia) 100 % of control; (dose: 40.0 mg/kg/injection, schedule: Q01DX009 (ip), vehicle: gum acacia) 95 % of control; (dose: 40.0 mg/kg/injection, schedule: Q04DX003 (ip), vehicle: gum acacia) 90 % of control; (dose: 80.0 mg/kg/injection, schedule: Q01DX009 (ip), vehicle: gum acacia) 91 % of control. In addition, the T/C (dose: 80.0 mg/kg/injection, schedule: Q04DX003 (ip), vehicle: gum acacia) is 95 % of control.
`O=C1NC2NC(=O)NC2N1` (stereo not given): the T/C was 100 % of control under setting [3], 100 % of control under setting [4] and 104 % of control under setting [5].
Turning to `CCC(=O)N(C)[C@@H](C)C(=O)O[C@H]1CC(=O)N(C)c2cc(cc(OC)c2Cl)C/C(C)=C/C=C[C@@H](OC)[C@@]2(O)C[C@H](OC(=O)N2)[C@@H](C)[C@@H]2O[C@@]12C`, the T/C (dose: 0.2 micrograms/kg/injection, schedule: Q01DX009 (ip), vehicle: saline) was 120 % of control; the T/C (dose: 1.6 micrograms/kg/injection, schedule: Q01DX009 (ip), vehicle: saline) was 154 % of control; the T/C (dose: 3.1 micrograms/kg/injection, schedule: Q01DX009 (ip), vehicle: saline) is 150 % of control; the T/C (dose: 12.5 micrograms/kg/injection, schedule: Q01DX009 (ip), vehicle: saline) is 104 % of control.
Turning to `C/C(=N\N)c1ccc(Cl)cc1`, the T/C was 100 % of control under setting [10], 104 % of control under setting [11] and 95 % of control under setting [9].
On to `CCCCCCCCCCCCCCCCNC(C)c1ccccc1` (stereo not given), for which the T/C (dose: 12.5 mg/kg/injection, schedule: Q04DX003 (ip), vehicle: saline with Tween-80) was 101 % of control and the T/C (dose: 25.0 mg/kg/injection, schedule: Q04DX003 (ip), vehicle: saline with Tween-80) was 106 % of control.
Turning to `CC(=O)C(=Cc1c[nH]c2ccccc12)C(C)=O`, the T/C under setting [6] is 92 % of control; the T/C under setting [7] is 90 % of control; the T/C under setting [12] is 110 % of control; the T/C under setting [1] was 105 % of control; the T/C under setting [2] is 120 % of control.
Regarding `ClC1(Cl)OC(Cl)(Cl)C(Cl)(Cl)OC1(Cl)Cl`, the T/C (dose: 50.0 mg/kg/injection, schedule: Q01DX009 (ip), vehicle: Klucel (hydroxypropylcellulose) (HPC)) is 95 % of control; the T/C under setting [12] is 95 % of control; the T/C (dose: 200.0 mg/kg/injection, schedule: Q01DX009 (ip), vehicle: Klucel (hydroxypropylcellulose) (HPC)) was 109 % of control.
As to `O=C(C=C(C(F)(F)F)C(F)(F)F)c1ccco1`, the T/C was 120 % of control under setting [10] and 120 % of control under setting [11].

The values above are taken from PubChem BioAssay AID328 (DTP/NCI, 2004).
